Like-named read-outs stand apart in the source and are kept apart here.
Experiments:
hNudt16 [1] = biological target: T1, hNudt16 (Homo sapiens, UniProt Q96DE0); assay: Enzymatic hydrolysis catalyzed by hNudt16, products quantified by HPLC; format: biochemical; set-up: 4xHis (four added histidines); made in house; details: 20 µM substrate, 37 °C; for Hydrolysis Products / Hydrolysis Rate, v/[E]0 (hydrolyzed substrate per minute per [enzyme] µM) / Hydrolysis Rate, v/µg (hydrolyzed substrate per minute per enzyme µg): pH 7.9, 6 mM MgCl2, nd = hydrolysis products not detected
T1 sequence (Q96DE0 whole entry): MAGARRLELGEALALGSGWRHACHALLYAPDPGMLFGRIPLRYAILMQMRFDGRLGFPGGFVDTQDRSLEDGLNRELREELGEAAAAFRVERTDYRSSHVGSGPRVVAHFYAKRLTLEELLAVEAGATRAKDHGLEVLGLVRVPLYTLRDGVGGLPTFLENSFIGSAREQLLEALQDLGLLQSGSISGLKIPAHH
Protocol: Enzymatic hydrolysis catalyzed by hNudt16 was performed at 37 °C in 40 mM Tris buffer (pH 7.9) containing 100 mM NaCl, 6 mM MgCl2, and 2 mM DTT. The concentration of the investigated dinucleotides and mononucleotides was 20 µM in the reaction mixture.
(§1) The hydrolytic susceptibility of the compounds was studied using HPLC. Before each experiment, 1 mL of buffer solution containing the analyte was incubated at 37 °C for 10 min. The hydrolysis process was initiated by the addition of hNudt16. To analyze the reaction progress, 200-µL aliquots of the reaction mixture were withdrawn and incubated at 96 °C for 5 min to stop the reaction through heat inactivation of the enzyme. The samples were then subjected to an HPLC system (Agilent 1200 series, Agilent Technologies, California, USA) with a reverse-phase Supelcosil LC-18-T column and UV/VIS detector. The substrates and hydrolysis products were eluted at 20 °C with a linear gradient of methanol in 0.1 M KH2PO4 (from 0% to 40%) over 15 min at a flow rate of 1.0 mL/min. Changes in the absorbance at 260 nm were continuously monitored during the analysis. Hydrolysis products were identified by comparing their retention times with those of the reference samples. The extent of decapping, determined as the percentage of the hydrolyzed substrate, was calculated using the area under the chromatographic peak of the respective compounds.

hNudt16E76Q [2] = biological target: T2, hNudt16E76Q (Homo sapiens, UniProt Q96DE0, E76Q); assay: Microscale thermophoresis (MST) binding, two independent binding sites model; details: for ΔGdiss1 (for Kd1): calculated as −RTlnKd from MST Kd1; for ΔGdiss2 (for Kd2): calculated as −RTlnKd from MST Kd2
T2 construct: 4xHis (four added histidines); made in house; host or cells: E. coli Rosetta 2 (DE3), pET16b
T2 sequence (Q96DE0 whole entry E76Q): as the sequence (Q96DE0 whole entry) above, with E76Q counted along it
Protocol: Binding constants for protein–ligand pairs were established using the MST method. The hNudt16 E76Q was labeled with RED-tris-NTA 2nd Generation dye (Monolith HIS-tag labeling Kit, NanoTemper Technologies, München, Germany) according to the manufacturer’s instructions. Measurements were carried out in a wide range of ligand concentrations, selected after preliminary tests for each of the ligands. The results obtained were used to determine of binding parameters for a given ligand. Each MST measurement consisted of a series of 16 serial 1:2 dilutions of the ligand, and was performed at a constant dye-labeled protein concentration of 50 nM. After 10 min of pre-incubation, dye-labeled protein–ligand samples were manually loaded into Monolith™ NT.115 Premium Capillaries (NanoTemper Technologies, München, Germany) and analyzed using the Monolith NT.115 (NanoTemper Technologies). […] Analysis was performed using Origin package (OriginLab, Northampton, MA, USA) and dissociation constants were fitted globally for a series of at least six MST pseudo-titration experiments for each ligand. Up to 10 replicates were performed for some ligands.
For the dissociation constants obtained, we also calculated the free energy associated with the dissociation of the complex ΔGdiss according to the equation: ΔGdiss=−RTlnKd.

hNudt16E76Q [3] = biological target: T2, hNudt16E76Q; assay: Thermal stability of hNudt16E76Q with ligands, dye-free nanoDSF; format: binding; details: for Tm, nanoDSF (Dye-Free) / ∆Tm, nanoDSF (Dye-Free): 5 µM hNudt16E76Q, 20 mM MgCl2, 0.5 mM ligand; for ∆Tm, nanoDSF (Dye-Free): relative to apo
Protocol: (§2) Protein thermal stability in the presence of various ligands was measured using two DSF methods: assays with SYPRO orange dye and dye-free assays. DSF assays with SYPRO orange dye were performed at specific ligand concentrations for each protein–ligand pair. This measurement was performed as described in Section 4.6.1, with a constant MgCl2 concentration of 20 mM and a concentration of the tested ligand maintained at 0.5 mM. DSF dye-free measurements were performed using a Prometheus NT.48 nanoDSF device (NanoTemper Technologies, München, Germany). The composition of the samples was identical to that in the DSF with SYPRO orange dye measurements, without the addition of any dye. […] The measurements were performed at a single ligand concentration for all ligands. After 10 min of pre-incubation, the samples were loaded into standard capillaries (NanoTemper Technologies, München, Germany). […] We fitted the melting temperatures (Tm) globally for at least three independent experiments (but separately for different DSF methods).

hNudt16E76Q [4] = biological target: T2, hNudt16E76Q; assay: Thermal stability of hNudt16E76Q with ligands, DSF with SYPRO Orange; format: binding; details: 5 µM hNudt16E76Q, 20 mM MgCl2, 0.5 mM ligand, 4× SYPRO Orange; for ∆Tm, DSF (with SYPRO Orange): relative to apo
Protocol: The protein thermal stability of wild-type hNudt16 and all tested mutants in the presence of increasing Mg^2+ ion concentration was measured using DSF with SYPRO orange dye on CFX RT-PCR (Bio-Rad, Hercules, CA, USA). This method is based on the change in fluorescence of the SYPRO orange dye in an aqueous buffer, which is strongly quenched, while its binding to the exposed hydrophobic regions of thermally unfolded protein results in an increased fluorescence. The optimal concentrations of protein, SYPRO orange dye, and buffer composition, in particular ion content, were determined. The samples were prepared and measured in clear 96-well multiplate PCR plates for RT-PCR (Bio-Rad, Hercules, CA, USA). […] The individual components of the solution were added in equal volumes to each well, with a final sample volume of 25 μL/well. The samples were gently mixed, and the 96-well plate was covered with optically clear PCR sealing tape (Bio-Rad, Hercules, CA, USA) to prevent evaporation. […] The data processing procedure was performed using Bio-Rad CFX Manager (version 1.6.541.1028), and melting point temperatures were calculated as the minimum of the first derivative plot.
as §2

hNudt16E76Q [5] = biological target: T2, hNudt16E76Q; assay: Hydrolytic properties of E76Q mutant tested by HPLC; format: biochemical
Protocol: as §1

hNudt16 EE-KK = biological target: T3, hNudt16 EE-KK (Homo sapiens, UniProt Q96DE0, E79K/E80K); assay: Hydrolytic properties of EE-KK mutant tested by HPLC; format: biochemical
T3 construct: 4xHis (four added histidines); made in house; host or cells: E. coli Rosetta 2 (DE3), pET16b
T3 sequence (Q96DE0 whole entry E79K/E80K): as the sequence (Q96DE0 whole entry) above, with E79K, E80K counted along it
Protocol: as §1

hNudt16 EE-QQ = biological target: T4, hNudt16 EE-QQ (Homo sapiens, UniProt Q96DE0, E79Q/E80Q); assay: Hydrolytic properties of EE-QQ mutant tested by HPLC; format: biochemical
T4 construct: 4xHis (four added histidines); made in house; host or cells: E. coli Rosetta 2 (DE3), pET16b
T4 sequence (Q96DE0 whole entry E79Q/E80Q): as the sequence (Q96DE0 whole entry) above, with E79Q, E80Q counted along it
Protocol: as §1

wild-type hNudt16 = biological target: T5, wild-type hNudt16 (Homo sapiens, UniProt Q96DE0); assay: Thermal stability of wild-type hNudt16 with ligands, nanoDSF; format: binding; details: 20 mM MgCl2, same conditions as E76Q
T5 construct: 4xHis (four added histidines); made in house
T5 sequence (Q96DE0 whole entry): as the sequence (Q96DE0 whole entry) above
Protocol: This allow us to conclude that there is no negative effect of the mutation on protein stabilization by studied compounds.
Protein thermal stability in the presence of various ligands was measured using two DSF methods: assays with SYPRO orange dye and dye-free assays. DSF assays with SYPRO orange dye were performed at specific ligand concentrations for each protein–ligand pair. This measurement was performed as described in Section 4.6.1, with a constant MgCl2 concentration of 20 mM and a concentration of the tested ligand maintained at 0.5 mM. DSF dye-free measurements were performed using a Prometheus NT.48 nanoDSF device (NanoTemper Technologies, München, Germany). The composition of the samples was identical to that in the DSF with SYPRO orange dye measurements, without the addition of any dye. The conditions during measurements were as follows: 5 µM protein, 20 mM MgCl2, 10 mM HEPES pH 7.9, 150 mM NaCl, 5% glycerol, 1 mM TCEP, and 0.5 mM ligand. The measurements were performed at a single ligand concentration for all ligands. After 10 min of pre-incubation, the samples were loaded into standard capillaries (NanoTemper Technologies, München, Germany). During the measurement, the samples were heated in a temperature range of 20–95 °C at a rate of 1 °C/min, and the measurements were performed with an excitation power of 30%. All of the collected data measured with using the above two DSF methods were analyzed according to the two-state transition numerical model described previously, using the Marquardt algorithm implemented in the Origin 2019 package (OriginLab, Northampton, MA, USA). We fitted the melting temperatures (Tm) globally for at least three independent experiments (but separately for different DSF methods).

hNudt16 [6] = biological target: T1, hNudt16; details: cited from earlier work
[7] = second, weaker binding site, read-out: Kd2
[8] = stronger binding site, 50 nM dye-labeled protein, read-out: Kd1

With `C[n+]1cn([C@@H]2O[C@H](COP(=O)([O-])OP(=O)(O)OC[C@H]3O[C@@H](n4cnc5c(=O)[nH]c(N)nc54)[C@H](O)[C@@H]3O)[C@@H](O)[C@H]2O)c2nc(N)[nH]c(=O)c21` [m^7GppG] as the molecule, how does the “Hydrolysis Products” value (hNudt16 [1]) read?
The value was “m^7GMP + GMP”.

What about the “Hydrolysis Rate, v/[E]0 (hydrolyzed substrate per minute per [enzyme] µM)” value (hNudt16 [1]) of the same molecule?
The value was 722.6 ± 68.6 µM/min/[E]0.

And the “Hydrolysis Rate, v/µg (hydrolyzed substrate per minute per enzyme µg)” value (hNudt16 [1])?
The value was 30.11 ± 2.81 µM/min/µg.

What about the “ΔGdiss1 (for Kd1)” value (hNudt16E76Q [2]) of the same molecule?
The value was 9.063 kcal/mol.

And the “ΔGdiss2 (for Kd2)” value (hNudt16E76Q [2])?
Its value is 6.154 kcal/mol.

And the Kd (hNudt16E76Q [2]; [7])?
Its Kd is 30200 ± 2500 nM.

What about the Kd (hNudt16E76Q [2]; [8]) of the same molecule?
The Kd was 220 ± 87 nM.

What about the “Tm, nanoDSF (Dye-Free)” value (hNudt16E76Q [3]) of the same molecule?
The value was 80.2 ± 0.1 °C.

And the “∆Tm, nanoDSF (Dye-Free)” value (hNudt16E76Q [3])?
The value was 15.2 ± 0.1 °C.

What about the “Tm, DSF (with SYPRO Orange)” value (hNudt16E76Q [4]) of the same molecule?
The value was 78.2 ± 0.1 °C.

And the “∆Tm, DSF (with SYPRO Orange)” value (hNudt16E76Q [4])?
The value was 14.4 ± 0.1 °C.

And the “Hydrolytic activity of E76Q mutant” value (hNudt16E76Q [5])?
The value was “none of the mutants exhibited hydrolytic activity”.

For `Nc1nc2c(ncn2[C@@H]2O[C@H](COP(=O)(O)OP(=O)(O)OC[C@H]3O[C@@H](n4cnc5c(=O)[nH]c(N)nc54)[C@H](O)[C@@H]3O)[C@@H](O)[C@H]2O)c(=O)[nH]1` [GppG], which “Hydrolytic activity of EE-KK mutant” value (hNudt16 EE-KK) is on record?
Its value is “none of the mutants exhibited hydrolytic activity”.

And the “Hydrolysis Products” value (hNudt16 [1])?
The value was “GMP”.

And the “Hydrolysis Rate, v/[E]0 (hydrolyzed substrate per minute per [enzyme] µM)” value (hNudt16 [1])?
The value was 5454.5 ± 436.3 µM/min/[E]0.

And the “Hydrolysis Rate, v/µg (hydrolyzed substrate per minute per enzyme µg)” value (hNudt16 [1])?
The value was 227.27 ± 18.25 µM/min/µg.

And the “ΔGdiss1 (for Kd1)” value (hNudt16E76Q [2])?
The value was 9.708 kcal/mol.

What about the “ΔGdiss2 (for Kd2)” value (hNudt16E76Q [2]) of the same molecule?
The value was 7.89 kcal/mol.

What about the Kd (hNudt16E76Q [2]; [7]) of the same molecule?
The Kd was 1600 ± 400 nM.

And the Kd (hNudt16E76Q [2]; [8])?
The Kd was 73 ± 23 nM.

What about the “Tm, nanoDSF (Dye-Free)” value (hNudt16E76Q [3]) of the same molecule?
The value was 83.1 ± 0.1 °C.

What about the “∆Tm, nanoDSF (Dye-Free)” value (hNudt16E76Q [3]) of the same molecule?
Its value is 18.0 ± 0.1 °C.

What about the “ΔTm relative to the apo form, both DSF and nanoDSF” value (hNudt16E76Q [3]; 0.5 mM ligand, stated for both types of measurements) of the same molecule?
The value was 17.5–18.0 °C.

And the “Tm, DSF (with SYPRO Orange)” value (hNudt16E76Q [4])?
The value was 81.2 ± 0.1 °C.

What about the “∆Tm, DSF (with SYPRO Orange)” value (hNudt16E76Q [4]) of the same molecule?
Its value is 17.5 ± 0.1 °C.

What about the “Hydrolytic activity of E76Q mutant” value (hNudt16E76Q [5]) of the same molecule?
The value was “none of the mutants exhibited hydrolytic activity”.

And the “Hydrolytic activity of EE-QQ mutant” value (hNudt16 EE-QQ)?
The value was “none of the mutants exhibited hydrolytic activity”.

Which results are given for Adenosine diphosphate ribose [ADPr]?
Tm, wild-type hNudt16, nanoDSF (wild-type hNudt16): 68.1 ± 0.1 °C; ΔTm, wild-type hNudt16, nanoDSF (wild-type hNudt16): 0.9 ± 0.1 °C; Susceptibility to hydrolysis by hNudt16 (in words) (hNudt16 [1]; HPLC): resistant to hydrolytic cleavage; ΔGdiss2 (for Kd2) (hNudt16E76Q [2]): ≤2.32 kcal/mol; Km (hNudt16 [6]): ~1000 µM; Tm, nanoDSF (Dye-Free) (hNudt16E76Q [3]): 66.0 ± 0.1 °C; ∆Tm, nanoDSF (Dye-Free) (hNudt16E76Q [3]): 0.9 ± 0.1 °C; Tm, DSF (with SYPRO Orange) (hNudt16E76Q [4]): 63.6 ± 0.1 °C; ∆Tm, DSF (with SYPRO Orange) (hNudt16E76Q [4]): −0.1 ± 0.1 °C

Which “Tm, wild-type hNudt16, nanoDSF” value (wild-type hNudt16) does the source give for `Nc1nc2c(ncn2[C@@H]2O[C@H](COP(=O)(O)O)[C@@H](O)[C@H]2O)c(=O)[nH]1` [GMP, Guanosine monophosphate] here?
The value was 70.8 ± 0.1 °C.

And the “ΔTm, wild-type hNudt16, nanoDSF” value (wild-type hNudt16)?
The value was 3.5 ± 0.1 °C.

And the “Tm, nanoDSF (Dye-Free)” value (hNudt16E76Q [3])?
The value was 69.1 ± 0.1 °C.

What about the “∆Tm, nanoDSF (Dye-Free)” value (hNudt16E76Q [3]) of the same molecule?
The value was 4.0 ± 0.1 °C.

And the “Tm, DSF (with SYPRO Orange)” value (hNudt16E76Q [4])?
Its value is 68.0 ± 0.1 °C.

What about the “∆Tm, DSF (with SYPRO Orange)” value (hNudt16E76Q [4]) of the same molecule?
The value was 4.3 ± 0.1 °C.

From publication PMC8535469, “Insight into the Binding and Hydrolytic Preferences of hNudt16 Based on Nucleotide Diphosphate Substrates” (International Journal of Molecular Sciences, 2021)
